# According to patent US5260280A (priority 1989, dated 1993):
# Values joined by “and” are separate entries in the source; they are usually repeats but may differ in a detail not shown here. Identical values can stand only once. Like-named read-outs stand apart in the source and are kept apart here.
# Columns and labels:
# [1] = system: CHO-Kl cells; format: cell-based, Chinese hamster
# [2] = system: enterotoxin LT-II; parameters: species or system E. coli; settings: in vivo, po
# [3] = target: cholera toxin B-subunits (Vibrio cholerae, UniProt P01556); format: binding
# [4] = target: enterotoxin CFA/II(LT-II) (Escherichia coli, UniProt P0CK94); format: cell-based, E. coli
# Chain of enterotoxin CFA/II(LT-II) (P0CK94 whole entry, looked up): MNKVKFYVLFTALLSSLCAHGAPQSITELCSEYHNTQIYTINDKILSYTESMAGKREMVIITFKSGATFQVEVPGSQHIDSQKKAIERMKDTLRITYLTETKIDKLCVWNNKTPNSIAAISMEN
# [5] = target: enterotoxin CFA/I(LT-1) (Escherichia coli, UniProt D0Z6T1); format: cell-based, E. coli
# Chain of enterotoxin CFA/I(LT-1) (D0Z6T1 whole entry, looked up): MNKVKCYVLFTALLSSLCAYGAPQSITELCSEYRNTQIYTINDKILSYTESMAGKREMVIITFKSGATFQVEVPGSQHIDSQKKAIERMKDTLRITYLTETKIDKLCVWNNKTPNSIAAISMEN
# [6] = target: cholera toxin CT (Vibrio cholerae, UniProt P01556); format: cell-based
# Chain of cholera toxin CT (P01556 whole entry, looked up): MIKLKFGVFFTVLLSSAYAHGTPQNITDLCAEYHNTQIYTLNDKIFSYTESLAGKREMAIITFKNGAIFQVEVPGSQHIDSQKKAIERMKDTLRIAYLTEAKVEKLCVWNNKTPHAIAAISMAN
# [7] = system: cholera toxin; format: in vivo, Vibrio cholerae; settings: Balb/c mice, CT 0.25 mg oral on day 8
# [8] = system: enterotoxin LT-I; parameters: species or system E. coli; settings: in vivo, po
substance,measurement,setting,value
cholera toxin [CT],CHO-Kl cells morphologically altered,[1],at least 70%
ganglioside GD3,Rate of diarrhea,[2],40% and 20%
kappa-casein,interference with the binding of the cholera toxin B-subunits to GM1,[3],interfered with the binding
same,neutralization of the toxicity of LT-II against CHO-Kl cells (morphological alteration),[4],neutralized the toxicity
same,neutralization of the toxicity of LT-I against CHO-Kl cells (morphological alteration),[5],neutralized the toxicity
same,neutralization of the toxicity of CT against CHO-Kl cells (morphological alteration),[6],neutralized the toxicity
kappa-casein glycomacropeptides [GMP],interference with the binding of the cholera toxin B-subunits to GM1,[3],interfered with the binding
same,neutralization of the toxicity of LT-II against CHO-Kl cells (morphological alteration),[4],neutralized the toxicity
same,neutralization of the toxicity of LT-I against CHO-Kl cells (morphological alteration),[5],neutralized the toxicity
same,neutralization of the toxicity of CT against CHO-Kl cells (morphological alteration),[6],neutralized the toxicity
sialyllactose [SL],interference with the binding of the cholera toxin B-subunits to GM1,"[3]; GM1-adsorbed plate, peroxidase-labeled CT-B, absorbance at 405 nm",interfered with the binding
same,neutralization of the toxicity of LT-II against CHO-Kl cells (morphological alteration),"[4]; samples 1 or 5 micrograms/chamber, LT-II culture supernatant",neutralized the toxicity
same,Rate of diarrhea,[7]; oral 0.2 mg/day for 7 days,20%
same,Rate of diarrhea,[7]; oral 0.5 mg/day for 7 days,20%
same,Rate of diarrhea,[7]; oral 1.0 mg/day for 7 days,0%
same,Rate of diarrhea,[8],40% and 20%
same,neutralization of the toxicity of LT-I against CHO-Kl cells (morphological alteration),"[5]; samples 1 or 5 micrograms/chamber, LT-I culture supernatant",neutralized the toxicity
same,neutralization of the toxicity of CT against CHO-Kl cells (morphological alteration),"[6]; samples 1 or 5 micrograms/chamber, CT 10 micrograms/ml",neutralized the toxicity
